Results published in PubChem BioAssay (NCI).
Values joined by “and” are separate entries in the source; they are usually repeats but may differ in a detail not shown here. Identical values can stand only once.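 The compound was tested at five concentrations on cells cultured in 96-well plates, with a 48-hour exposure period. GI50 marks 50% less growth. TGI marks complete inhibition of growth.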

Assays:
Assay in all cases: growth of human tumour cells (NCI), 48 h
[1] = test system: RXF 393 renal
[2] = test system: IGROV1 ovarian
[3] = test system: KM12 colon
[4] = test system: DU-145 prostate
[5] = test system: OVCAR-8 ovarian
[6] = test system: COLO 205 colon
[7] = test system: SK-MEL-28 melanoma
[8] = test system: SK-MEL-5 melanoma
[9] = test system: NCI-H226 lung
[10] = test system: OVCAR-4 ovarian

O=c1c(O)cccc2cc(O)c(O)c(O)c12
GI50 [1]: 13.3 µM
TGI [1]: > 100 µM
GI50 [2]: 5.06 µM
TGI [2]: 27 µM
GI50 [3]: 26.9 µM
TGI [3]: > 100 µM
GI50 [4]: 18.8 µM
TGI [4]: > 100 µM
GI50 [5]: 27.3 µM
TGI [5]: > 100 µM
GI50 [6]: > 100 µM
TGI [6]: > 100 µM
GI50 [7]: 32.3 µM
TGI [7]: > 100 µM
GI50 [8]: > 100 µM
TGI [8]: > 100 µM
GI50 [9]: > 100 µM
TGI [9]: > 100 µM

N#CC(C#N)N=Nc1ccc(Br)cc1
GI50 [10]: 2 µM
TGI [10]: 37.9 µM
GI50 [1]: 3.63 µM
TGI [1]: 14 µM
GI50 [2]: 3.68 µM
TGI [2]: > 73.6 µM
GI50 [3]: 9.65 µM
TGI [3]: > 100 µM
GI50 [4]: 4.02 µM
TGI [4]: > 51.1 µM
GI50 [5]: 3.67 µM
TGI [5]: 33.4 µM
GI50 [6]: 1.43 µM
TGI [6]: 3.25 µM
GI50 [7]: 3.41 µM
TGI [7]: 26.5 µM
GI50 [8]: 5.13 µM
TGI [8]: 34.1 µM
GI50 [9]: 4.63 µM
TGI [9]: 27 µM

O=C(Nc1ccccc1O)c1ccc(CNc2ccnc(C(F)(F)F)c2)cc1
GI50 [10]: 17.2 µM
TGI [10]: > 100 µM
GI50 [1]: 17.3 µM
TGI [1]: 43.3 µM
GI50 [2]: 7.64 µM
TGI [2]: 32.9 µM
GI50 [3]: 7.01 µM
TGI [3]: 23.3 µM
GI50 [4]: 3.38 µM
TGI [4]: 19.4 µM
GI50 [5]: 5.15 µM
TGI [5]: > 100 µM
GI50 [6]: 14.7 µM
TGI [6]: 31.3 µM
GI50 [7]: 3.52 µM
TGI [7]: 23.4 µM
GI50 [8]: 2.2 µM
TGI [8]: 10.2 µM
GI50 [9]: 6.56 µM
TGI [9]: 33.8 µM

O=[N+]([O-])/C=C/c1cc2ccccc2[nH]1
TGI [10]: 27.4 µM
TGI [1]: 26.6 µM
TGI [2]: 26.3 µM
TGI [3]: 25 µM
TGI [4]: 28.8 µM
TGI [5]: 48.8 µM
TGI [6]: 32.7 µM
TGI [7]: 44 µM
TGI [8]: 28.2 µM
TGI [9]: 37.7 µM

COc1cc(Nc2ncc(F)c(Nc3ccc4c(n3)NC(=O)C(C)(C)O4)n2)cc(OC)c1OC
GI50 [10]: > 100 µM
TGI [10]: > 100 µM
GI50 [1]: 0.418 µM
TGI [1]: 5.89 µM
GI50 [2]: 0.43 µM
TGI [2]: > 10 µM
GI50 [3]: 0.366 µM and 0.527 µM
TGI [3]: > 100 µM
GI50 [4]: > 10 µM
TGI [4]: > 10 µM
GI50 [5]: > 100 µM
TGI [5]: > 100 µM
GI50 [6]: 2.4 µM and 2.55 µM
TGI [6]: > 100 µM
GI50 [7]: > 100 µM
TGI [7]: > 100 µM
GI50 [8]: > 100 µM
TGI [8]: > 100 µM
GI50 [9]: 0.4 µM and 0.393 µM
TGI [9]: > 100 µM

O=Cc1ccc(-c2ccc(-c3nc4ccccc4o3)cc2)s1
GI50 [10]: 34.9 µM
TGI [10]: > 100 µM
GI50 [1]: 49.4 µM
TGI [1]: > 100 µM
GI50 [2]: 30.1 µM
TGI [2]: > 100 µM
GI50 [3]: 30.3 µM
TGI [3]: > 100 µM
GI50 [4]: 26.3 µM
TGI [4]: > 100 µM
GI50 [5]: 35 µM
TGI [5]: > 100 µM
GI50 [6]: 32.1 µM
TGI [6]: > 100 µM
GI50 [7]: 24.1 µM
TGI [7]: > 100 µM
GI50 [8]: 21.8 µM
TGI [8]: 45.2 µM
GI50 [9]: 31.5 µM
TGI [9]: 90.2 µM

CCCCCCCCCc1cc[n+](CC(=O)c2ccc([N+](=O)[O-])cc2)cc1
GI50 [10]: 0.78 µM
TGI [10]: 2.57 µM
GI50 [1]: 0.754 µM
TGI [1]: 2.15 µM
GI50 [2]: 1.66 µM
TGI [2]: 3.29 µM
GI50 [3]: 0.569 µM
TGI [3]: 1.97 µM
GI50 [4]: 0.729 µM
TGI [4]: 2.04 µM
GI50 [5]: 0.604 µM
TGI [5]: 2.13 µM
GI50 [6]: 0.344 µM
TGI [6]: 1.45 µM
GI50 [7]: 1.11 µM
TGI [7]: 2.39 µM
GI50 [8]: 0.42 µM
TGI [8]: 1.54 µM
GI50 [9]: 0.535 µM
TGI [9]: 2.15 µM

CC(C)CC(=O)Nc1n[nH]c2c1CN(C(=O)C1CCN(C)CC1)C2(C)C
GI50 [10]: 2.54 µM
TGI [10]: > 10 µM
GI50 [1]: 1.22 µM
TGI [1]: 4.04 µM
GI50 [2]: 0.579 µM
TGI [2]: > 10 µM
GI50 [3]: 0.72 µM
TGI [3]: > 10 µM
GI50 [4]: 1.6 µM
TGI [4]: > 10 µM
GI50 [5]: 1.3 µM
TGI [5]: > 10 µM
GI50 [6]: 0.331 µM
TGI [6]: 2.19 µM
GI50 [7]: 0.626 µM
TGI [7]: > 10 µM
GI50 [8]: 0.743 µM
TGI [8]: 5.7 µM
GI50 [9]: 1.48 µM
TGI [9]: > 10 µM

COc1cc2c(cc1OC)C(OC)N(C)c1c-2ccc2cc3c(cc12)OCO3 (configuration not stated)
TGI [10]: 26 µM
TGI [1]: 22.7 µM
TGI [2]: 3.02 µM
TGI [3]: 4.45 µM
TGI [4]: > 75 µM
TGI [5]: 21.6 µM
TGI [6]: 2.95 µM
TGI [7]: 33.5 µM
TGI [8]: 6.76 µM
TGI [9]: 4.3 µM

Nc1ccccc1NC(=O)c1ccc(CCCC(=O)Nc2ccc(C3CC3N)cc2)cc1 (configuration not stated)
GI50 [10]: 2.21 µM
TGI [10]: 26.4 µM
GI50 [1]: 1.65 µM
TGI [1]: 4.1 µM
GI50 [2]: 4.24 µM
TGI [2]: > 100 µM
GI50 [3]: 3.63 µM
TGI [3]: > 100 µM
GI50 [4]: 2.66 µM
TGI [4]: 18.5 µM
GI50 [5]: 1.32 µM
TGI [5]: > 100 µM
GI50 [6]: 0.765 µM
TGI [6]: 2.89 µM
GI50 [7]: 1.31 µM
TGI [7]: 11.3 µM
GI50 [8]: 0.716 µM
TGI [8]: 2.21 µM
GI50 [9]: 1.85 µM
TGI [9]: 69.4 µM

COC1=CC(=O)C(OC)=C(OC)C1=O
GI50 [10]: 3.05 µM
TGI [10]: 9.69 µM
GI50 [1]: 17.1 µM
TGI [1]: 30.9 µM
GI50 [2]: 19.7 µM
TGI [2]: 37.6 µM
GI50 [4]: 16 µM
TGI [4]: 29.7 µM
GI50 [5]: 15.5 µM
TGI [5]: 30.7 µM
GI50 [6]: 15.1 µM
TGI [6]: 29 µM
GI50 [7]: 28.3 µM
TGI [7]: 94.1 µM
GI50 [8]: 16.2 µM
TGI [8]: 30.2 µM
GI50 [9]: 18.7 µM
TGI [9]: 39.2 µM

C[C@@H](CN1CC(=O)NC(=O)C1)N1CC(=O)NC(=O)C1
TGI [10]: 1110 µM
TGI [1]: 1140 µM
TGI [2]: 1440 µM
TGI [3]: 2170 µM
TGI [4]: 1430 µM
TGI [5]: 747 µM
TGI [6]: 296 µM
TGI [7]: 1750 µM
TGI [8]: 543 µM
GI50 [9]: 90.7 µM
TGI [9]: 485 µM

O=C(O)c1cc2ccccc2oc1=O
TGI [10]: > 100 µM
TGI [1]: > 100 µM
TGI [2]: > 100 µM
TGI [3]: > 100 µM
TGI [4]: > 100 µM
TGI [5]: > 100 µM
TGI [6]: > 100 µM
TGI [7]: > 100 µM
TGI [8]: > 100 µM
TGI [9]: > 100 µM

OC(COc1ccc(F)cc1)Cn1cnc2c(Cl)ncnc21 (configuration not stated)
GI50 [10]: > 100 µM
TGI [10]: > 100 µM
GI50 [1]: 1.78 µM
TGI [1]: 44.4 µM
GI50 [2]: 47.4 µM
TGI [2]: > 100 µM
GI50 [3]: > 100 µM
TGI [3]: > 100 µM
GI50 [4]: > 100 µM
TGI [4]: > 100 µM
GI50 [5]: 78.6 µM
TGI [5]: > 100 µM
GI50 [6]: > 100 µM
TGI [6]: > 100 µM
GI50 [7]: > 100 µM
TGI [7]: > 100 µM
GI50 [8]: 81.4 µM
TGI [8]: > 100 µM
GI50 [9]: > 100 µM
TGI [9]: > 100 µM
